According to US12286632B2, “Rationally-designed synthetic peptide shuttle agents for delivering polypeptide cargos from an extracellular space to the cytosol and/or nucleus of a target eukaryotic cell, uses thereof, methods and kits relating to same” (Feldan Bio Inc., priority 2016, dated 2025):

Tests used:
[1] = test system: HeLa cells; test: Plasmid DNA (pEGFP-C1) transfection by peptides (% cells with GFP signal, cell viability); conditions: DNA transfection in HeLa cells using peptides; pEGFP-C1 plasmid
[2] = test system: HeLa cells; test: HOXB4-WT transduction, immuno-labelling and visualization by microscopy; assay type: cell-based, Human; conditions: HOXB4-WT 25 μM; shuttle 35 μM; 10 seconds, Protocol B
Protocol: Adherent cells were plated on a sterile glass strip at 1.5×10^5 cells per well in a 24-plate well and incubated overnight at 37° C. For fixation, cells were incubated in 500 μL per well of formaldehyde (3.7% v/v) for 15 minutes at room temperature, and washed 3 times for 5 minutes with PBS. For permeabilization, cells were incubated in 500 μL per well of Triton™ X-100 (0.2%) for 10 minutes at room temperature, and washed 3 times for 5 minutes with PBS. For blocking, cells were incubated in 500 μL per well of PBS containing 1% BSA (PBS/BSA) for 60 minutes at room temperature. Primary mouse monoclonal antibody was diluted PBS/BSA (1%). Cells were incubated in 30 μL of primary antibody overnight at 4° C. Cells were washed 3 times for 5 minutes with PBS. Secondary antibody was diluted in PBS/BSA (1%) and cells were incubated in 250 μL of secondary antibody 30 minutes at room temperature in the dark. Cells were washed 3 times for 5 minutes with PBS. […]
Recombinant HOXB4-WT transcription factor (25 μM; Example 14.1) was co-incubated with 35 μM of His-CM18-PTD4 and exposed to HeLa cells for 10 seconds using Protocol B as described in Example 9.1. […] The cells were visualized by bright field and fluorescence microscopy at 20× and 40× magnifications as described in Example 3.2, and sample results are shown in FIG. 45. […]

With `CC[C@H](C)[C@H](NC(=O)[C@H](CCCCN)NC(=O)[C@H](CCCCN)NC(=O)[C@H](Cc1ccccc1)NC(=O)[C@H](CC(C)C)NC(=O)[C@H](CCCCN)NC(=O)[C@H](Cc1c[nH]c2ccccc12)NC(=O)[C@H](CCCCN)NC(=O)[C@H](Cc1c[nH]cn1)NC(=O)[C@H](Cc1c[nH]cn1)NC(=O)[C@H](Cc1c[nH]cn1)NC(=O)[C@H](Cc1c[nH]cn1)NC(=O)[C@H](Cc1c[nH]cn1)NC(=O)[C@@H](N)Cc1c[nH]cn1)C(=O)NCC(=O)N[C@@H](C)C(=O)N[C@H](C(=O)N[C@@H](CC(C)C)C(=O)N[C@@H](CCCCN)C(=O)N[C@H](C(=O)N[C@@H](CC(C)C)C(=O)N[C@H](C(=O)N[C@H](C(=O)NCC(=O)N[C@@H](Cc1ccc(O)cc1)C(=O)N[C@@H](C)C(=O)N[C@@H](CCCNC(=N)N)C(=O)N[C@@H](C)C(=O)N[C@@H](C)C(=O)N[C@@H](C)C(=O)N[C@@H](CCCNC(=N)N)C(=O)N[C@@H](CCC(N)=O)C(=O)N[C@@H](C)C(=O)N[C@@H](CCCNC(=N)N)C(=O)N[C@@H](C)C(=O)O)[C@@H](C)O)[C@@H](C)O)C(C)C)C(C)C` [His-CM18-PTD4] the “Mean % cells with GFP signal (±St. Dev.; n = 3)” value [1] was 0.04 ± 0.01% and the “HOXB4-WT nuclear delivery (immuno-labelling)” value [2] was “HOXB4-WT was successfully delivered to the nucleus after 30 min”.
